Reference: US10662183B2, “Inhibitors of myocardin-related transcription factor and serum response factor (MRTF/SRF)-mediated gene transcription and methods for use of the same” (THE REGENTS OF THE UNIVERSITY OF MICHIGAN, priority 2014, dated 2020)

System: SRE.L-firefly luciferase reporter (Rho/MKL1 pathway) in PC-3 prostate cancer cells
Experiment: SRE.L-luciferase reporter assay
Type: cell-based
Conditions: 19 h, PC-3 cells transfected with Gα12Q231L, SRE.L and pRL-TK reporters; compound 19 hrs
Protocol: Seed PC-3 prostate cancer cells (40,000 cells/well) were grown in 96-well plates in 10% FBS containing DMEM medium. Cells were transiently transfected with the Ga12QL activator of the Rho/MKL1 pathway, along with the SRE.L-firefly luciferase reporter construct for 6 hours. Additionally, cells were co-transfected with the TK-Renilla luciferase reporter as an indicator of non-specific compound effects. Various concentrations of the compounds disclosed herein were added to the 96-well plates. Plates were incubated for 19 hours at 37° C. and 5% C02 in 0.5% FBS containing DMEM medium. Cells were lysed with IX Passive Lysis Buffer (Promega). Plates were incubated for 30 minutes at room temperature. Luminescence counts were read with a Victor2 (Perkin-Elmer) plate reader.
One hour prior to cell lysis for the dual luciferase assay, 10 μl: per well of WST1 reagent (Roche) was added to the 96-well plates. Plates were incubated for 1 hour at 37° C. and 5% CO2. Cell viability was measured by WST1 absorbance at 450 nm with a Victor2 (Perkin-Elmer) plate reader.
Biological activity of the compounds disclosed herein were assessed in the SRE.L luciferase reporter assay. PC-3 prostate cancer cells were co-transfected with 2 ng of the Gα12Q231L expression plasmid along with 50 ng of the SRE.L and 7 ng of the pRL-TK luciferase reporter plasmids, as described in the Materials and Methods section. Cells were treated with 0 (vehicle, DMSO alone), 1, 3, 10, 30, and 100 μM of a compound disclosed herein for 19 hrs after transfection before lysis. Luminescence was determined as described in the Materials and Methods section. Just before cell lysis, the viability of the cells was measured using the WST-1 cell proliferation reagent as described in the Materials and Methods section. Data are expressed as percentage of inhibition (DMSO alone=0%). The experiments were performed three separate times to achieve n=3 in triplicate.

IC50 [nM]	Structure (SMILES)
15000	CCOC(=O)NC1CC(C(=O)Nc2ccc(Cl)cc2)CN(C(=O)c2cccc(-c3ccco3)c2)C1 (stereo not drawn) [Example E-058, ethyl (5-((4-chlorophenyl)carbamoyl)-1-(3-(furan-2-yl)benzoyl)piperidin-3-yl)carbamate]
31000	O=C(c1cccc(-c2ccco2)c1)N1CC(COc2ccc(Cl)cc2)CC(F)(F)C1 (stereo not drawn) [Example E-059, (5-((4-chlorophenoxy)methyl)-3,3-difluoropiperidin-1-yl) (3-(furan-2-yl)phenyl)methanone]
21000	O=C(c1cccc(-c2ccco2)c1)N1CCCC(NS(=O)(=O)c2ccc(Cl)cc2)C1 (stereo not drawn) [Example E-062, 4-chloro-N-(1-(3-(furan-2-yl)benzoyl)piperidin-3-yl)benzenesulfonamide]
15000	O=C1CC(C(=O)Nc2ccc(Cl)cc2)CN(C(=O)c2cccc(-c3ccco3)c2)C1 (stereo not drawn) [Example E-063, N-(4-chlorophenyl)-1-(3-(furan-2-yl)benzoyl)-5-oxopiperidine-3-carboxamide]
6900	CN(C)C1CC(C(=O)Nc2ccc(Cl)cc2)CN(C(=O)c2cccc(-c3ccco3)c2)C1 (stereo not drawn) [Example E-064, N-(4-chlorophenyl)-5-(dimethylamino)-1-(3-(furan-2-yl)benzoyl)piperidine-3-carboxamide]
13000	O=C(NC1CCCN(C(=O)c2cccc(-c3ccco3)c2)C1)c1ccc(Cl)cc1 (stereo not drawn) [Example E-065, 4-chloro-N-(1-(3-(furan-2-yl)benzoyl)piperidin-3-yl)benzamide]
2300	O=C(c1cccc(-c2ccco2)c1)N1CCCC(COc2ccc(Cl)cc2)C1 (stereo not drawn) [Example E-066, (3-((4-chlorophenoxy)methyl)piperidin-1-yl)(3-(furan-2-yl)phenyl)methanone]
7000	O=C(Nc1ccc(Cl)cc1)C1CN(C(=O)c2cccc(-n3cccn3)c2)CC(F)(F)C1 (stereo not drawn) [Example E-067, 1-(3-(1H-pyrazol-1-yl)benzoyl)-N-(4-chlorophenyl)-5,5-difluoropiperidine-3-carboxamide]
780	O=C(Nc1ccc(Cl)cc1)C1CN(C(=O)c2cccc(-c3ccncc3)c2)CC(F)(F)C1 (stereo not drawn) [Example E-068, N-(4-chlorophenyl)-5,5-difluoro-1-(3-(pyridin-4-yl)benzoyl) piperidine-3-carboxamide]
1800	Cc1oc(-c2ccccc2)nc1C(=O)N1CCCC(C(=O)Nc2ccc(Cl)cc2)C1 (stereo not drawn) [Example E-069, N-(4-chlorophenyl)-1-(5-methyl-2-phenyloxazole-4-carbonyl)piperidine-3-carboxamide]
9100	O=C(Nc1ccc(Cl)cc1)C1CN(C(=O)Cc2nc3ccccc3[nH]2)CC(F)(F)C1 (stereo not drawn) [Example E-070, 1-(2-(1H-benzo[d]imidazol-2-yl)acetyl)-N-(4-chlorophenyl)-5,5-difluoropiperidine-3-carboxamide]
12000	O=C(Nc1ccc(Cl)cc1)C1CCCN(C(=O)Cc2cc3ccccc3o2)C1 (stereo not drawn) [Example E-071, 1-(2-(benzofuran-2-yl)acetyl)-N-(4-chlorophenyl)piperidine-3-carboxamide]
84	Cc1nc(-c2ccccc2)sc1C(=O)N1CCCC(C(=O)Nc2ccc(Cl)cc2)C1 (stereo not drawn) [Example E-072, N-(4-chlorophenyl)-1-(4-methyl-2-phenylthiazole-5-carbonyl)piperidine-3-carboxamide]
450	O=C(Nc1ccc(Cl)cc1)C1CCCN(C(=O)c2csc(-c3ccccc3)n2)C1 (stereo not drawn) [Example E-073, N-(4-chlorophenyl)-1-(2-phenylthiazole-4-carbonyl)piperidine-3-carboxamide]
> 100000	O=C(Nc1ccc(Cl)cc1)C1CCCN(C(=O)c2ccc3scnc3c2)C1 (stereo not drawn) [Example E-074, 1-(benzo[d]thiazole-5-carbonyl)-N-(4-chlorophenyl)piperidine-3-carboxamide]
680	O=C(Nc1ccc(Cl)cc1)C1CN(C(=O)c2nc3ccccc3[nH]2)CC(F)(F)C1 (stereo not drawn) [Example E-075, 1-(1H-benzo[d]imidazole-2-carbonyl)-N-(4-chlorophenyl)-5,5-difluoropiperidine-3-carboxamide]
1600	O=C(Nc1ccc(Cl)cc1)C1CN(C(=O)c2ccc3cc[nH]c3c2)CC(F)(F)C1 (stereo not drawn) [Example E-076, N-(4-chlorophenyl)-5,5-difluoro-1-(1H-indole-6-carbonyl)piperidine-3-carboxamide]
810	CC(C)(C(=O)N1CCCC(C(=O)Nc2ccc(Cl)cc2)C1)c1csc(-c2ccc(F)cc2)n1 (stereo not drawn) [Example E-077, N-(4-chlorophenyl)-1-(2-(2-(4-fluorophenyl)thiazol-4-yl)-2-methylpropanoyl)piperidine-3-carboxamide]

IC50 [nM]	Structure (SMILES)
1000	O=C(Nc1ccc(Cl)cc1)C1CCCN(C(=O)Cc2csc(-c3ccc(F)cc3)n2)C1 (stereo not drawn) [Example E-078, N-(4-chlorophenyl)-1-(2-(2-(4-fluorophenyl)thiazol-4-yl)acetyl)piperidine-3-carboxamide]
920	O=C(Nc1ccc(Cl)cc1)C1CCCN(C(=O)c2cc3ccc(F)cc3[nH]2)C1 (stereo not drawn) [Example E-079, N-(4-chlorophenyl)-1-(6-fluoro-1H-indole-2-carbonyl)piperidine-3-carboxamide]
310	O=C(Nc1ccc(Cl)cc1)C1CCCN(C(=O)c2cc3ccccc3[nH]2)C1 (stereo not drawn) [Example E-080, N-(4-chlorophenyl)-1-(1H-indole-2-carbonyl)piperidine-3-carboxamide]
260	COc1ccc2[nH]c(C(=O)N3CCCC(C(=O)Nc4ccc(Cl)cc4)C3)cc2c1 (stereo not drawn) [Example E-081, N-(4-chlorophenyl)-1-(5-methoxy-1H-indole-2-carbonyl)piperidine-3-carboxamide]
370	O=C(Nc1ccc(Cl)cc1)C1CCCN(C(=O)c2ccc3[nH]ncc3c2)C1 (stereo not drawn) [Example E-082, N-(4-chlorophenyl)-1-(1H-indazole-5-carbonyl)piperidine-3-carboxamide]
670	O=C(Nc1ccc(Cl)cc1)C1CCCN(C(=O)CCc2c[nH]c3ccccc23)C1 (stereo not drawn) [Example E-083, 1-(3-(1H-indol-3-yl)propanoyl)-N-(4-chlorophenyl) piperidine-3-carboxamide]
390	O=C(Nc1ccc(Cl)cc1)C1CCCN(C(=O)Cc2c[nH]c3ccccc23)C1 (stereo not drawn) [Example E-084, 1-(2-(1H-indol-3-yl)acetyl)-N-(4-chlorophenyl)piperidine-3-carboxamide]
310	O=C(Nc1ccc(Cl)cc1)C1CCCN(C(=O)c2cccc3[nH]ncc23)C1 (stereo not drawn) [Example E-085, N-(4-chlorophenyl)-1-(1H-indazole-4-carbonyl)piperidine-3-carboxamide]
97	O=C(Nc1ccc(Cl)cc1)C1CCCN(C(=O)c2ccc3cc[nH]c3c2)C1 (stereo not drawn) [Example E-086, N-(4-chlorophenyl)-1-(1H-indole-6-carbonyl)piperidine-3-carboxamide]
130	O=C(Nc1ccc(Cl)cc1)C1CCCN(C(=O)c2ccc3[nH]ccc3c2)C1 (stereo not drawn) [Example E-087, N-(4-chlorophenyl)-1-(1H-indole-5-carbonyl)piperidine-3-carboxamide]
1500	O=C(Nc1ccc(Cl)cc1)C1CCCN(C(=O)c2n[nH]c3ccccc23)C1 (stereo not drawn) [Example E-088, N-(4-chlorophenyl)-1-(1H-indazole-3-carbonyl)piperidine-3-carboxamide]
120	O=C(Nc1ccc(Cl)cc1)C1CCCN(C(=O)c2nc3ccccc3[nH]2)C1 (stereo not drawn) [Example E-089, 1-(1H-benzo[d]imidazole-2-carbonyl)-N-(4-chlorophenyl)piperidine-3-carboxamide]
240	O=C(Nc1ccc(Cl)cc1)C1CCCN(C(=O)c2ccccc2-n2cccn2)C1 (stereo not drawn) [Example E-090, 1-(2-(1H-pyrazol-1-yl)benzoyl)-N-(4-chlorophenyl) piperidine-3-carboxamide]
4100	O=C(Nc1ccc(Cl)cc1)C1CCCN(C(=O)c2ccccc2-n2ccnc2)C1 (stereo not drawn) [Example E-091, 1-(2-(1H-imidazol-1-yl)benzoyl)-N-(4-chlorophenyl) piperidine-3-carboxamide]
710	O=C(Nc1ccc(Cl)cc1)C1CCCN(C(=O)c2ccccc2-c2ccco2)C1 (stereo not drawn) [Example E-092, N-(4-chlorophenyl)-1-(2-(furan-2-yl)benzoyl)piperidine-3-carboxamide]
490	O=C(Nc1ccc(Cl)cc1)C1CCCN(C(=O)c2ccc3cn[nH]c3c2)C1 (stereo not drawn) [Example E-093, N-(4-chlorophenyl)-1-(1H-indazole-6-carbonyl)piperidine-3-carboxamide]
460	O=C(Nc1ccc(Cl)cc1)C1CCCN(C(=O)c2ccc3occc3c2)C1 (stereo not drawn) [Example E-094, 1-(benzofuran-5-carbonyl)-N-(4-chlorophenyl)piperidine-3-carboxamide]
5500	CS(=O)(=O)c1ccc(NC(=O)C2CCCN(C(=O)c3cccc(-c4ccco4)c3)C2)cc1 (stereo not drawn) [Example E-095, 1-(3-(furan-2-yl)benzoyl)-N-(4-(methylsulfonyl)phenyl) piperidine-3-carboxamide]
